Some test systems named below: A549 NSCLC; BT-549 breast; SNB-19 CNS; OVCAR-3 ovarian; A498 renal; SN12C renal; SK-MEL-28 melanoma; EKVX NSCLC; HL-60(TB) leukemia; HT29 colon; U251 CNS; ACHN renal; NCI-H522 lung; HCT-15 colon; TK-10 renal; MCF7 breast; T-47D breast; COLO 205 colon; LOX IMVI melanoma; NCI-H23 lung.
Test in all cases: NCI anticancer screen, dose series, 48 h

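48-hour exposure; five concentrations; linearly interpolated endpoints. TGI: concentration producing complete growth inhibition.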 Some results are limits rather than exact numbers.

With `O=C(Cc1nccc2c1[nH]c1ccccc12)OC1C#CCSCC#C/C=C\1` (configuration not stated), the TGI in the assay with A549 NSCLC, in the assay on BT-549 breast, in the assay with SNB-19 CNS, with OVCAR-3 ovarian, in the assay on A498 renal and in the assay on SN12C renal was greater than 100 µM throughout. The TGI in the assay with SK-MEL-28 melanoma, in the assay with EKVX NSCLC, in the assay on HL-60(TB) leukemia, with HT29 colon, with U251 CNS and in the assay with ACHN renal was greater than 100 µM in each case. Moreover, the TGI in the assay on NCI-H522 lung, in the assay with HCT-15 colon, in the assay with TK-10 renal, in the assay on MCF7 breast, in the assay with T-47D breast and in the assay on COLO 205 colon was greater than 100 µM each time. The same compound yielded a TGI in the assay on LOX IMVI melanoma greater than 100 µM.

With `CCN1CCN(c2nc3ccc([N+](=O)[O-])cc3nc2C(=O)c2ccccc2)CC1`, the TGI was found to be 33.7 µM in the assay on A549 NSCLC; 16.9 µM in the assay with BT-549 breast; 71.2 µM in the assay with SNB-19 CNS; 30.6 µM in the assay with OVCAR-3 ovarian; 73.2 µM with A498 renal; 30.9 µM in the assay with SN12C renal. Moreover, the TGI in the assay on EKVX NSCLC worked out at 29.6 µM; in the assay with HL-60(TB) leukemia, 61.9 µM; in the assay on U251 CNS it was 31.9 µM; with NCI-H23 lung it was 34.4 µM; in the assay with ACHN renal, 29.3 µM; in the assay on NCI-H522 lung, 10.3 µM. The TGI with HCT-15 colon was 25 µM; with TK-10 renal, 34.2 µM; in the assay with MCF7 breast it was 34.8 µM; with T-47D breast, greater than 100 µM; with COLO 205 colon, 30 µM; in the assay on LOX IMVI melanoma, 17.8 µM.

For the compound `COC(=O)/C=C/c1ccc2c(c1)CC1(C2)Cc2cc3c(cc2C1=O)CCC3` (configuration not stated), the TGI in the assay with A549 NSCLC was greater than 100 µM; with BT-549 breast, greater than 100 µM; in the assay with SNB-19 CNS, greater than 100 µM; in the assay on OVCAR-3 ovarian, 43.7 µM; with A498 renal, greater than 100 µM; in the assay on SN12C renal, greater than 100 µM. Moreover, the TGI in the assay with SK-MEL-28 melanoma, with EKVX NSCLC, with HL-60(TB) leukemia, with U251 CNS, in the assay on ACHN renal and in the assay on NCI-H522 lung was greater than 100 µM in each case. Further, the TGI in the assay with HCT-15 colon was greater than 100 µM; in the assay on TK-10 renal, greater than 100 µM; in the assay with MCF7 breast, greater than 100 µM; in the assay on T-47D breast, 81.8 µM; in the assay with COLO 205 colon, greater than 100 µM; with LOX IMVI melanoma, greater than 100 µM.

With `CC1C2CC(C(S(=O)(=O)N3CCOCC3)/C2=N\O)C1(C)C` (configuration not stated), the TGI in the assay on A549 NSCLC, in the assay on BT-549 breast, in the assay with SNB-19 CNS, in the assay with OVCAR-3 ovarian, with A498 renal and in the assay with SN12C renal was greater than 100 µM each time. Besides, the TGI in the assay with SK-MEL-28 melanoma, with EKVX NSCLC, in the assay on HL-60(TB) leukemia, in the assay with HT29 colon, in the assay with NCI-H23 lung and in the assay on ACHN renal was greater than 100 µM each time. The TGI with NCI-H522 lung, with HCT-15 colon, with TK-10 renal, in the assay on MCF7 breast, with T-47D breast and in the assay with COLO 205 colon was greater than 100 µM in each case. Further, the TGI in the assay with LOX IMVI melanoma was greater than 100 µM.

`O=C(/C=C/c1ccc(/C=C/C(=O)c2ccc(O)cc2)cc1)c1ccc(O)cc1`: the TGI in the assay with A549 NSCLC, in the assay on BT-549 breast, in the assay with SNB-19 CNS, in the assay on OVCAR-3 ovarian, in the assay with A498 renal and in the assay on SN12C renal was greater than 100 µM throughout. Moreover, the TGI with SK-MEL-28 melanoma, in the assay with EKVX NSCLC, in the assay on HL-60(TB) leukemia, in the assay on HT29 colon, with U251 CNS and in the assay with NCI-H23 lung was greater than 100 µM each time. Also, the TGI in the assay with ACHN renal, in the assay on HCT-15 colon, in the assay with TK-10 renal, with MCF7 breast, with T-47D breast and in the assay on COLO 205 colon was greater than 100 µM each time. Further, the TGI with LOX IMVI melanoma was greater than 100 µM.

Regarding `CCOC(=O)c1ccc(C(=O)/C(C(C)=O)=C2\CCCN2C)n1C`, the TGI in the assay with A549 NSCLC, in the assay with BT-549 breast, with SNB-19 CNS, with OVCAR-3 ovarian, with A498 renal and in the assay on SN12C renal was greater than 100 µM each time. Further, the TGI with SK-MEL-28 melanoma was greater than 100 µM; with EKVX NSCLC it was greater than 100 µM; in the assay on HL-60(TB) leukemia it was 64.2 µM; in the assay with U251 CNS it was greater than 100 µM; in the assay with NCI-H23 lung, greater than 100 µM; in the assay with ACHN renal, greater than 100 µM. Also, the TGI in the assay with NCI-H522 lung is greater than 100 µM; with HCT-15 colon, greater than 100 µM; with TK-10 renal it was greater than 100 µM; in the assay with MCF7 breast, greater than 100 µM; with T-47D breast it was 92 µM; with COLO 205 colon it was greater than 100 µM. In addition, in the assay with LOX IMVI melanoma, the TGI is greater than 100 µM.
